In test [1] the target is succinate-cytochrome c reductase (complexes II to III) (Echinococcus multilocularis, UniProt Q9TE80). As to the kind of experiment: Succinate:cytochrome c reductase activity (complexes II to III). The conditions noted are these: read-out: IC50 against succinate-cytochrome c reductase. It is filed as biochemical. Here is the method:
(§1) NADH:quinone reductase activity (complex I), succinate:quinone reductase activity (complex II), and succinate:cytochrome c reductase activity (complexes II to III) were measured using a UV-3000 spectrophotometer (Shimadzu, Kyoto, Japan) as described previously ([4], [6]). Briefly, all enzyme assays using mitochondrial fractions were performed in 0.5- or 1.0-mL reaction mixtures at 25°C. A freeze/thaw process was performed before the assay to ensure that the mitochondrial membrane was permeable to the solutes. The final mitochondrial protein concentration was 50 μg/mL. NADH:quinone reductase activity was measured in 50 mM potassium phosphate buffer (pH 7.4) containing 2 mM potassium cyanide, KCN (Sigma, St. Louis, MO, USA), and 60 μM decylubiquinone (Sigma). The activity assay was started by the addition of 50 μM NADH (Fujifilm-Wako, Tokyo, Japan) and recorded as the rate of NADH consumption as monitored at 340 nm (ε = 6.2 mM^−1 cm^−1). […] SQR activity was determined by monitoring the change in absorbance of quinone at 278 nm (ε = 15 mM^−1 cm^−1) in the presence of 60 μM decylubiquinone, 2 mM KCN, and the inhibitor. […] NADH:cytochrome c activity (complex I to III) was measured in the reaction buffer (30 mM potassium phosphate, 1 mM MgCl2, pH 7.5) containing 2 mM KCN, 50 μM cytochrome c (Nacalai Tesque, Kyoto, Japan), and the inhibitor. […]

In test [2] the target is complex II (succinate:quinone reductase, SQR) (Echinococcus multilocularis, UniProt A0A1Z4EAW8+A0A1Z4EAX0+A0A1Z4EAX1). As to the kind of experiment: Succinate:quinone reductase (SQR) activity (complex II) in protoscoleces mitochondrial fraction. It is filed as biochemical. The source says: (§2) Cyst tissues containing E. multilocularis (Nemuro strain) protoscoleces isolated from infected hispid cotton rats, Sigmodon hispidus, were used. The tissues were shredded through a metal mesh (0.5 mm diameter). Then, the tissues were repeatedly suspended and washed with physiological saline in a tall beaker to obtain protoscoleces by exploiting the buoyancy difference between protoscoleces and other tissue ([26]). The obtained protoscoleces were homogenized with a motor-driven homogenizer to prepare the mitochondrial fraction. The homogenate was diluted with mitochondrial preparation buffer (210 mM mannitol, 10 mM sucrose, 1 mM disodium EDTA, and 50 mM Tris-HCl [pH 7.5]) supplemented with 10 mM sodium malonate to 5 times the volume of the original protoscolex homogenate, and then centrifuged at 800 × g for 10 min (4°C) to remove cell debris and nuclei. The supernatant was then centrifuged at 8,000 × g for 10 min (4°C) to obtain the mitochondrial pellet. Next, the pellet was resuspended in mitochondrial preparation buffer (without malonate) and centrifuged at 8,000 × g for 10 min (4°C). The enriched mitochondrial fraction was finally suspended in approximately 0.5 to 1.0 mL of mitochondrial preparation buffer without malonate and frozen at −50°C. The mitochondrial fraction from A. suum was prepared essentially as described previously ([27], [28]).
(§3) NADH:quinone reductase activity (complex I), succinate:quinone reductase activity (complex II), and succinate:cytochrome c reductase activity (complexes II to III) were measured using a UV-3000 spectrophotometer (Shimadzu, Kyoto, Japan) as described previously ([4], [6]). Briefly, all enzyme assays using mitochondrial fractions were performed in 0.5- or 1.0-mL reaction mixtures at 25°C. A freeze/thaw process was performed before the assay to ensure that the mitochondrial membrane was permeable to the solutes. The final mitochondrial protein concentration was 50 μg/mL. NADH:quinone reductase activity was measured in 50 mM potassium phosphate buffer (pH 7.4) containing 2 mM potassium cyanide, KCN (Sigma, St. Louis, MO, USA), and 60 μM decylubiquinone (Sigma). The activity assay was started by the addition of 50 μM NADH (Fujifilm-Wako, Tokyo, Japan) and recorded as the rate of NADH consumption as monitored at 340 nm (ε = 6.2 mM^−1 cm^−1). The reagents used in the SQR activity assay were mixed with the reaction buffer containing 50 mM potassium phosphate (pH 7.4) and 0.1% (wt/vol) sucrose monolaurate (DOJINDO, Kumamoto, Japan). SQR activity was determined by monitoring the change in absorbance of quinone at 278 nm (ε = 15 mM^−1 cm^−1) in the presence of 60 μM decylubiquinone, 2 mM KCN, and the inhibitor. The reaction was initiated by the addition of 10 mM disodium succinate to the mixture. NADH:cytochrome c activity (complex I to III) was measured in the reaction buffer (30 mM potassium phosphate, 1 mM MgCl2, pH 7.5) containing 2 mM KCN, 50 μM cytochrome c (Nacalai Tesque, Kyoto, Japan), and the inhibitor. The assay was performed after the addition of 100 mM malonate to block complex II activity. The reaction was started by adding 50 μM NADH to the mixture, and the enzyme activity was determined by monitoring the change in absorbance of cytochrome c at 550 nm (ε = 19 mM^−1 cm^−1). IC50 values of AF and its derivatives against the specific activities of mitochondrial respiratory enzymes in protoscoleces were determined. The IC50 of each compound was determined by calculating approximation lines from three or more points on either side of the IC50 concentration.

Test [3] addresses complex I (NADH:quinone reductase) (Echinococcus multilocularis, UniProt A0A068Y553+A0A068Y9L9+Q9TE76). As to the kind of experiment: NADH:quinone reductase activity (complex I) in protoscoleces mitochondrial fraction. The conditions noted are these: E. multilocularis protoscoleces mitochondria; read-out: IC50 NADH:decyl rhodoquinone reductase (complex I). The format is biochemical.
Text: as §2
as §3, with “Louis, MO, USA), and 60 μM decylubiquinone (Sigma).” left out, “SQR activity was determined by monitoring the change in absorbance of quinone at 278 nm (ε = 15 mM^−1 cm^−1) in the presence of 60 μM decylubiquinone, 2 mM KCN, and the inhibitor.” left out

Test [4] deals with complex I and III (NADH:cytochrome c reductase) (Echinococcus multilocularis, UniProt Q9TE80). Nature of the test: NADH:cytochrome c reductase activity (complex I to III) in protoscoleces mitochondrial fraction. The format is biochemical. Conditions: for IC50: E. multilocularis protoscoleces mitochondria, mean ± SEM, Table 1, read-out: IC50 NADH:cytochrome c reductase (complex I and III).
Text: as §2, §3

The subject of test [5] is E. multilocularis protoscoleces. As to the kind of experiment: Ex vivo culture assay of live protoscoleces, viability by trypan blue exclusion. The format is cell-based, Echinococcus multilocularis. Conditions: 50 μM; for antiparasitic effect on protoscoleces in culture assay: both anaerobic and aerobic conditions. Here is the method:
FIG 5 Viability of E. multilocularis protoscoleces in ex vivo culture assay. The E. multilocularis protoscoleces were treated with ascofuranone (AF) and its derivatives in culture under aerobic and anaerobic conditions (O2 <0.3%). Each compound was added to the culture medium at a final concentration of 50 μM. The control group was supplemented with 0.5% (vol/vol) dimethyl sulfoxide (DMSO). Atovaquone (ATV) was used as positive control and to ensure anaerobic conditions in the culture. The viability of protoscoleces was evaluated by their ability to exclude trypan blue. The data are presented as the mean ± standard deviation (n = 3).
The obtained protoscoleces were cultured in Connaught Medical Research Laboratories 1066 medium (Gibco, Grand Island, NY, USA) containing 0.5% (wt/vol) yeast extract (Difco Laboratories, Detroit, MI, USA), 2 mM L-glutamine (Gibco), 23 mM 4-(2-hydroxyethyl)-1-piperazineethanesulfonic acid, 0.5% (wt/vol) D (+)-glucose, 0.4 mM sodium taurocholate (Wako Pure Chemical Industries, Osaka, Japan), 57 mM sodium hydrogen carbonate, and 100 U/mL penicillin-streptomycin (Gibco). The protoscoleces were observed daily for seven consecutive days, and half of the medium was replaced on day 3. For anaerobic cultures, six-well plates were sealed in plastic containers with oxygen-detecting agents and oxygen scavengers (Aneromeito, Nissui Pharmaceutical, Tokyo, Japan) to keep the oxygen concentration below 0.3% at 37°C. The protoscoleces were treated with AF and its derivatives at a final concentration of 50 μM in the culture medium, and the duration of parasite elimination was investigated. The control group was supplemented with 0.5% (vol/vol) dimethyl sulfoxide (DMSO), and all conditions were assayed in triplicate. We used ATV in a culture assay as positive control and to ensure anaerobic conditions in the culture ([4], [5]). […] The viability of protoscoleces was determined after microscopic observation of more than 170 protoscoleces per well using the trypan blue exclusion test, as described previously ([4], [6], [33]).

The target of the next test is T1, A. suum complex II (Ascaris suum, UniProt O44074+P92506+P92507).
T1 construct: from tissue; host or cells: A. suum mitochondrial fraction
As to the kind of experiment: Complex II activity of A. suum mitochondrial fraction. It is filed as biochemical.
Text: as §2, with “Next, the pellet was resuspended in mitochondrial preparation buffer (without malonate) and centrifuged at 8,000 × g for 10 min (4°C). The enriched mitochondrial fraction was finally suspended in approximately 0.5 to 1.0 mL of mitochondrial preparation buffer without malonate and frozen at −50°C. The mitochondrial fraction from A. suum was prepared essentially as described previously ([27], [28]).” left out
as §1, with “Briefly, all enzyme assays using mitochondrial fractions were performed in 0.5- or 1.0-mL reaction mixtures at 25°C. A freeze/thaw process was performed before the assay to ensure that the mitochondrial membrane was permeable to the solutes. The final mitochondrial protein concentration was 50 μg/mL.” left out

[6] abbreviates: IC50 against E. multilocularis complex II (SQR), figure legends, supplement.
[7] abbreviates: IC50 Succinate:quinone reductase (SQR) (complex II), E. multilocularis protoscoleces mitochondria, mean ± SEM, Table 1.

For orientation: IC50 means the concentration at which inhibition is half-maximal.

The structures appear in SMILES notation. Where two headings read alike, the source gives them in different places.

Chain of complex I and III (NADH:cytochrome c reductase) (Q9TE80 entry or part of it): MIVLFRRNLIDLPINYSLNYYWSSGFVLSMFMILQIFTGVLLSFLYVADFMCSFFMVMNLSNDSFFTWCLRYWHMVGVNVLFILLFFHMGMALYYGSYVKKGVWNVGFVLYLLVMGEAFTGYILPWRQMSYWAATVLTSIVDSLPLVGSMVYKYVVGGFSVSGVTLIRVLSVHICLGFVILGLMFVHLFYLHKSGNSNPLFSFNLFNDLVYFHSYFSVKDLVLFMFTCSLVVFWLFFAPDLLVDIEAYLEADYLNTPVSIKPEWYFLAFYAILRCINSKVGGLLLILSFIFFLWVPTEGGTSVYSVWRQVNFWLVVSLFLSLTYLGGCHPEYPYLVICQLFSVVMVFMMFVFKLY
Chain of complex I and III (NADH:cytochrome c reductase) (Q9GP40 whole entry, further chain): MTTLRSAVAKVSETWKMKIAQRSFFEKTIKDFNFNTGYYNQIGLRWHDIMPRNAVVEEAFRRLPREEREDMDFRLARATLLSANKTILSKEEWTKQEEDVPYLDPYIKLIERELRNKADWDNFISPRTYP
Chain of complex I and III (NADH:cytochrome c reductase) (Q9TE76 entry or part of it, further chain): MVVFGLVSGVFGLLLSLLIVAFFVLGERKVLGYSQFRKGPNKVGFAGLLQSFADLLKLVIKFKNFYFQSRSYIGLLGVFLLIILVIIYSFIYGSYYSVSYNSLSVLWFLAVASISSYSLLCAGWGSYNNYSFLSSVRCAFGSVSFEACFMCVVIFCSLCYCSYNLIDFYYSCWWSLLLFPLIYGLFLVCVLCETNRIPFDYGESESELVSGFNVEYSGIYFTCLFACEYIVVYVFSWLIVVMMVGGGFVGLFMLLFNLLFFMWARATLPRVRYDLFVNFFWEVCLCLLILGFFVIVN
T1 sequence (O44074 22-282): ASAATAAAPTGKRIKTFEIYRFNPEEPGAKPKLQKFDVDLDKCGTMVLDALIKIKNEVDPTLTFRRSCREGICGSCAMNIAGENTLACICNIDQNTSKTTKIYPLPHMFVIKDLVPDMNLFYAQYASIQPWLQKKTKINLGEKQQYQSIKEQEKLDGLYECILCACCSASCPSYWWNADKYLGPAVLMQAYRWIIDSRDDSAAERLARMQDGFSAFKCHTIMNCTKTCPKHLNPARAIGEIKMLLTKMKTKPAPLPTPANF
T1 sequence (P92506 32-188): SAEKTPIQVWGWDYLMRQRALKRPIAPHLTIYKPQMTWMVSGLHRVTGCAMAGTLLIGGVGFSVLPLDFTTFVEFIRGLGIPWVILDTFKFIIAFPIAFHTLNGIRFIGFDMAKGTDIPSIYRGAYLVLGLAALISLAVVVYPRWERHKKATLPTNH
T1 sequence (P92507 26-156): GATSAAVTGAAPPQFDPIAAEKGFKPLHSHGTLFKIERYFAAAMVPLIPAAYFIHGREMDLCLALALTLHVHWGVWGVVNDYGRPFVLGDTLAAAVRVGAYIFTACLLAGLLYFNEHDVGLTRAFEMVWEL
T1 sequence (Q33862 19-645 partner): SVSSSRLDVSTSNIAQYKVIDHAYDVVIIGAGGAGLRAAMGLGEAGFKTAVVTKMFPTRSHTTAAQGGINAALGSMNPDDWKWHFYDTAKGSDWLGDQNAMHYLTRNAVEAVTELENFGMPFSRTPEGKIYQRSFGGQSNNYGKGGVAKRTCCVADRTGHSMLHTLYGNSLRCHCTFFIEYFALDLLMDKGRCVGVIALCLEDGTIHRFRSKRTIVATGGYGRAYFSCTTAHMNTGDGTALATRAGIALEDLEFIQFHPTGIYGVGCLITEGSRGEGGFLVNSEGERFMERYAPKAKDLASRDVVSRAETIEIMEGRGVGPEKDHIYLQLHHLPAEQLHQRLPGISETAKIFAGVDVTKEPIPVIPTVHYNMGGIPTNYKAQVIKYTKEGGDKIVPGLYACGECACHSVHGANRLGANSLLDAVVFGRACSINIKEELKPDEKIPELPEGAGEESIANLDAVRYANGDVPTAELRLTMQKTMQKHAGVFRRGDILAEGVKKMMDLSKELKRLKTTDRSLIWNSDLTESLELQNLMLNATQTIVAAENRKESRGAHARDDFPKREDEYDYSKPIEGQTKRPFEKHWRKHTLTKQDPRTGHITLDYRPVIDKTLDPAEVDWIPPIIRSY
Chain of complex II (succinate:quinone reductase, SQR) (A0A1Z4EAV8 entry or part of it): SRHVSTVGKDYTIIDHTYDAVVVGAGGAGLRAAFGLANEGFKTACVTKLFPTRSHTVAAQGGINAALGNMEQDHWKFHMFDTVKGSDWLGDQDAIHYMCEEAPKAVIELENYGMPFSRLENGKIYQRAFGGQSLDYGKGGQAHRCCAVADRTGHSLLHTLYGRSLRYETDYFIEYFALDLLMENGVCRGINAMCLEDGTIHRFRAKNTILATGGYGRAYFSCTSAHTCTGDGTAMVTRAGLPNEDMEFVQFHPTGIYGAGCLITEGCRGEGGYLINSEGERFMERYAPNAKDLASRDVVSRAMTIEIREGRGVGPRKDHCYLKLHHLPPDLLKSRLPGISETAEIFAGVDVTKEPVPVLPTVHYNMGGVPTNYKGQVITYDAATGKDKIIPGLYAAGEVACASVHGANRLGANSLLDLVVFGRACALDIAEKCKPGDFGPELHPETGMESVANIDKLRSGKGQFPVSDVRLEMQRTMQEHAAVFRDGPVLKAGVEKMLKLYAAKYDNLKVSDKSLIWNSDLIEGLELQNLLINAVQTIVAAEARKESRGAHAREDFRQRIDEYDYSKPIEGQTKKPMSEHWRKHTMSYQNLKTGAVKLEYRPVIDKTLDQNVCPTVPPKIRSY
Chain of complex II (succinate:quinone reductase, SQR) (A0A1Z4EAX1 entry or part of it): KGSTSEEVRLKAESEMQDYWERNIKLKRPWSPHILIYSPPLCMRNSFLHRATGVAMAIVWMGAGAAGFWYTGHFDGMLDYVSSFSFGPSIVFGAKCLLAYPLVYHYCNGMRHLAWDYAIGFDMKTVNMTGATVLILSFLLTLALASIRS
Chain of complex II (succinate:quinone reductase, SQR) (A0A1Z4EAX0 entry or part of it): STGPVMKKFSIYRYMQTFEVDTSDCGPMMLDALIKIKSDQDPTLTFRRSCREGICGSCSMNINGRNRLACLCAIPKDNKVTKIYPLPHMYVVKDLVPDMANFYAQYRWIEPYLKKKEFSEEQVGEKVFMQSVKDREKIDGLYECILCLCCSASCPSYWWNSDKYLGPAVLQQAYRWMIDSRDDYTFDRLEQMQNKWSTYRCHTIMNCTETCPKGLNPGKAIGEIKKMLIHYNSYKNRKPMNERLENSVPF
Chain of complex II (succinate:quinone reductase, SQR) (A0A1Z4EAW8 entry or part of it): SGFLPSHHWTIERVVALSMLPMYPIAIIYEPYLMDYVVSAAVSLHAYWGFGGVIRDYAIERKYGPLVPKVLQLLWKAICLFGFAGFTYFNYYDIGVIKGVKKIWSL

Take `O=C1C(O)=C([C@H]2CC[C@H](c3ccc(Cl)cc3)CC2)C(=O)c2ccccc21` [ATV, Atovaquone, reference compound]: the IC50 in test [1] was determined as 0.002 µM; in test [2] (setting [6]), 0.69 µM.
With `CC(C)=CCC/C(C)=C/CC/C(C)=C/Cc1c(O)c(Cl)c(C)c(C=O)c1O` [Compound D2], the IC50 is over 50 µM in test [3]; 0.008 ± 0.002 µM in test [4]; 0.309 ± 0.021 µM in test [2] (IC50, E. multilocularis SQR inhibition, Table 5, furanone ring-substituted derivatives, mean ± SEM); 0.309 ± 0.021 µM in test [2] (setting [7]); 0.3 µM in test [2] (setting [6]). In addition, in test [4] (IC50 complex II 0.309 μM vs complex III 0.008 μM), the “selectivity complex III over complex II (aerobic vs anaerobic)” value came out at 38 fold. Further, the results for the “day of complete elimination of protoscoleces” value in test [5] (aerobic culture) and in test [5] (anaerobic culture (O2 <0.3%)) were at most 4 days and 6 days, respectively. Besides, the “antiparasitic effect on protoscoleces in culture assay” value (shortened to “antiparasitic effect on protoscoleces”) in test [5] is given as “strong antiparasitic effect”.
As to `CC(=O)c1cc(Cl)c(O)c(C/C=C(\C)CC/C=C(\C)CCC=C(C)C)c1O` [Compound D4], the IC50 in test [3] is over 50 µM; in test [4], 0.109 ± 0.009 µM; in test [2] (setting [7]), 0.037 ± 0.008 µM. Also, in test [5] (aerobic culture, day 7), the “elimination of protoscoleces on day 7” value is recorded as 34%. Also, the “elimination of protoscoleces by day 7” value in test [5] (anaerobic culture (O2 <0.3%), day 7) came to 65%. For the same compound, the “antiparasitic effect on protoscoleces” value in test [5] is “weak”.
Turning to `CC(=O)c1cc(Cl)c(O)c(C/C=C(\C)CCC=C(C)C)c1O` [Compound D5], the IC50 was over 50 µM in test [3]; 0.221 ± 0.044 µM in test [4]; 11 µM on A. suum complex II; 0.047 ± 0.011 µM in test [2] (IC50, inhibition of E. multilocularis SQR, Table 2, substitutions on the benzene group, mean ± SEM); 0.047 ± 0.011 µM in test [2] (setting [7]). Further, the results for the “day of complete elimination of protoscoleces” value in test [5] (aerobic culture) and in test [5] (anaerobic culture (O2 <0.3%)) were at most 6 days and at most 5 days, respectively. In addition, in test [5], the “antiparasitic effect on protoscoleces” value is “strong antiparasitic effect”. Further, the “fold less potent inhibition of A. suum complex II than of E. multilocularis complex II” value on A. suum complex II (ratio of IC50 A. suum / E. multilocularis) was 234 fold.
Consider `CC(C)(C)c1ccc(CNC(=O)c2ccccc2C(F)(F)F)cc1` [NN23, reference compound], for which the IC50 was 0.005 µM on A. suum complex II (A. suum mitochondrial fraction, read-out: IC50 against A. suum complex II) and over 20 µM in test [2] (figure legends, supplement, read-out: IC50 against E. multilocularis complex II (SQR)).
